Test: xn = mol fraction of the nth substance listed
Conditions: Liquid, Vibrating tube method

C=C(C)C(=O)OCCN(C)C [2-(dimethylamino)ethyl methylpropenoate] + CCCO
mass density [kg/m3]
Conditions	100 kPa	5000 kPa	10000 kPa	15000 kPa	20000 kPa	25000 kPa	30000 kPa	35000 kPa
293.15 K, x1 = 0.03	813.1	817.13	820.85	824.33	827.64	830.83	833.97	837.12
293.15 K, x1 = 0.0598	822.05	825.95	829.65	833.15	836.5	839.72	842.82	845.84
293.15 K, x1 = 0.0998	832.86	836.81	840.49	843.94	847.22	850.38	853.46	856.5
293.15 K, x1 = 0.1502	845.14	849.07	852.65	856.05	859.3	862.47	865.58	868.68
293.15 K, x1 = 0.2003	855.86	859.68	863.26	866.65	869.89	873.06	876.18	879.33
293.15 K, x1 = 0.2502	865.17	868.95	872.5	875.88	879.12	882.27	885.37	888.47
293.15 K, x1 = 0.3013	873.68	877.48	881.04	884.41	887.65	890.79	893.88	896.98
293.15 K, x1 = 0.3992	887.54	891.31	894.85	898.21	901.43	904.58	907.69	910.81
293.15 K, x1 = 0.4482	893.36	897.13	900.67	904.04	907.28	910.43	913.53	916.64
293.15 K, x1 = 0.4998	898.97	902.77	906.35	909.73	912.96	916.08	919.13	922.15
293.15 K, x1 = 0.5509	903.96	907.77	911.33	914.67	917.88	921	924.1	927.23
293.15 K, x1 = 0.5986	908.27	912.04	915.56	918.89	922.08	925.2	928.3	931.47
293.15 K, x1 = 0.699	916.1	919.83	923.35	926.69	929.91	933.05	936.14	939.24
293.15 K, x1 = 0.7994	922.7	926.51	930.05	933.38	936.55	939.65	942.73	945.86
293.15 K, x1 = 0.8519	925.73	929.5	933.03	936.39	939.61	942.75	945.87	949.02
293.15 K, x1 = 0.8992	928.25	931.98	935.56	938.89	942.14	945.3	948.43	951.54
293.15 K, x1 = 0.9284	929.69	933.42	936.97	940.36	943.63	946.83	949.98	953.12
293.15 K, x1 = 0.9587	931.16	934.9	938.45	941.84	945.11	948.29	951.43	954.55
303.15 K, x1 = 0.0307	805.44	809.69	813.63	817.3	820.75	824.03	827.2	830.29
303.15 K, x1 = 0.0599	813.96	818.16	822.06	825.7	829.13	832.41	835.6	838.73
303.15 K, x1 = 0.1003	824.72	828.9	832.79	836.41	839.84	843.1	846.24	849.31
303.15 K, x1 = 0.201	847.03	851.16	854.99	858.56	861.95	865.23	868.44	871.66
303.15 K, x1 = 0.3004	864.34	868.29	872.06	875.68	879.16	882.5	885.74	888.87
303.15 K, x1 = 0.4007	878.29	882.23	885.98	889.57	893.03	896.41	899.73	903.03
303.15 K, x1 = 0.4507	884.12	888.05	891.79	895.39	898.86	902.25	905.59	908.92
303.15 K, x1 = 0.4985	889.33	893.25	896.99	900.58	904.06	907.45	910.79	914.12
303.15 K, x1 = 0.5535	894.64	898.56	902.3	905.89	909.38	912.79	916.16	919.52
303.15 K, x1 = 0.5907	897.88	901.87	905.63	909.22	912.68	916.07	919.43	922.81
303.15 K, x1 = 0.7009	906.35	910.27	914.01	917.6	921.09	924.52	927.94	931.39
303.15 K, x1 = 0.8	912.95	916.83	920.56	924.17	927.7	931.16	934.59	938.01
303.15 K, x1 = 0.9043	918.6	922.52	926.3	929.96	933.53	937.03	940.48	943.91
303.15 K, x1 = 0.9269	919.6	923.57	927.36	931	934.55	938.03	941.51	945.01
303.15 K, x1 = 0.9551	921.07	924.99	928.75	932.41	935.97	939.47	942.94	946.41
313.15 K, x1 = 0.0303	797.13	801.51	805.58	809.4	813.02	816.51	819.93	823.33
313.15 K, x1 = 0.0602	805.6	809.95	814.02	817.86	821.5	825	828.39	831.72
313.15 K, x1 = 0.1007	816.21	820.42	824.41	828.2	831.83	835.35	838.78	842.17
313.15 K, x1 = 0.2003	838.07	842.22	846.16	849.93	853.55	857.04	860.44	863.76
313.15 K, x1 = 0.2989	854.98	859.16	863.14	866.94	870.58	874.08	877.48	880.8
313.15 K, x1 = 0.4005	869.05	873.2	877.16	880.94	884.58	888.1	891.52	894.87
313.15 K, x1 = 0.4513	875.07	879.17	883.11	886.91	890.57	894.1	897.51	900.82
313.15 K, x1 = 0.5026	880.52	884.58	888.5	892.29	895.96	899.51	902.95	906.3
313.15 K, x1 = 0.5521	885.29	889.39	893.33	897.12	900.78	904.32	907.74	911.06
313.15 K, x1 = 0.6025	889.7	893.77	897.71	901.52	905.22	908.79	912.25	915.59
313.15 K, x1 = 0.6976	897.07	901.19	905.15	908.97	912.65	916.22	919.67	923.02
313.15 K, x1 = 0.8037	903.96	908.07	912.04	915.87	919.56	923.14	926.61	929.99
313.15 K, x1 = 0.9043	909.46	913.62	917.61	921.46	925.17	928.79	932.32	935.78
313.15 K, x1 = 0.933	910.82	914.96	918.95	922.81	926.56	930.22	933.79	937.29
313.15 K, x1 = 0.9605	912.22	916.36	920.35	924.21	927.96	931.63	935.23	938.78
